For one test, the target named is T1, PRC2-EZH2 (WT EZH2) (Homo sapiens, UniProt Q15910).
T1 construct: made in house
Nature of the test: EZH2 methyltransferase inhibitory activity evaluation. Particulars: PRC2-EZH2, biotin-H3 peptide, 3H-SAM, 2 hours. The class given is biochemical.

Test [1] concerns Intracellular H3K27me3 in HCT116 cells. Kind of test: Intracellular H3K27me3 inhibitory activity evaluation. As to conditions: Homo sapiens, HCT-116, 72 h, 3 days, AlphaLISA, read-out: Test Example 3 H3K27me3 inhibition (HCT116) IC50. The class given is cell-based.
Another test addresses PRC2-EZH1 (WT EZH1) (Homo sapiens, UniProt Q92800). Nature of the test: EZH1 methyltransferase inhibitory activity evaluation.

Molecules are shown by their SMILES.

PRC2-EZH1 (WT EZH1), sequence (Q92800 whole entry): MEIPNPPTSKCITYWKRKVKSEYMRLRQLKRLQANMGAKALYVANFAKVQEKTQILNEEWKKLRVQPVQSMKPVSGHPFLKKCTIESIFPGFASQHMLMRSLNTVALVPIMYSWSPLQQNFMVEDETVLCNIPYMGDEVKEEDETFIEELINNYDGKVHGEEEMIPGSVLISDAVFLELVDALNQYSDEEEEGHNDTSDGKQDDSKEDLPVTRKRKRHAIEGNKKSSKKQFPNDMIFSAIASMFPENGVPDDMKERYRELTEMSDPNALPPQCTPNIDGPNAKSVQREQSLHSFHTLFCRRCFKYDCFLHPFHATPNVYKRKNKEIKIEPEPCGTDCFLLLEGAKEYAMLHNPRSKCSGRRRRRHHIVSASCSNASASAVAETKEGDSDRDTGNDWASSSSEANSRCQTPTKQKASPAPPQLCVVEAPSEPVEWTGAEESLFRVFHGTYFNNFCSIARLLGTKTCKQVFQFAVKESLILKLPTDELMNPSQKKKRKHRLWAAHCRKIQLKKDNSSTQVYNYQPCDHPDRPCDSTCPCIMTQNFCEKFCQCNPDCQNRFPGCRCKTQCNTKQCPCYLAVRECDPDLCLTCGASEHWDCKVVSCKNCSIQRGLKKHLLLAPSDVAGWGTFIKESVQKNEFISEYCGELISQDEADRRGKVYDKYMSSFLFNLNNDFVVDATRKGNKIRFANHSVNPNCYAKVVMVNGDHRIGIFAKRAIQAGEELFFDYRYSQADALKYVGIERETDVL
PRC2-EZH1 (WT EZH1), sequence (O75530 whole entry partner): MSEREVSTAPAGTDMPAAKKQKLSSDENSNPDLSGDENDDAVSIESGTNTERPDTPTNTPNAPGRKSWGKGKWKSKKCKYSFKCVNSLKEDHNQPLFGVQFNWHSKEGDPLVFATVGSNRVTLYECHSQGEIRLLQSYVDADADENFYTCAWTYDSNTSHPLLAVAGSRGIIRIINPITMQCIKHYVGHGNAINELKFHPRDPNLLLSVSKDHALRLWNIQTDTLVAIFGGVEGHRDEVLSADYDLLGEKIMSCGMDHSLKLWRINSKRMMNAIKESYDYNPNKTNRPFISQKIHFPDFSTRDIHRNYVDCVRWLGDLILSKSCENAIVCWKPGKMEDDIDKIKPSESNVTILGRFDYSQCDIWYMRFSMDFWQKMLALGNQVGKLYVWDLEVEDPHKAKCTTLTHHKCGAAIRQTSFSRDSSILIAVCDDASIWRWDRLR
PRC2-EZH1 (WT EZH1), sequence (Q15022 whole entry partner): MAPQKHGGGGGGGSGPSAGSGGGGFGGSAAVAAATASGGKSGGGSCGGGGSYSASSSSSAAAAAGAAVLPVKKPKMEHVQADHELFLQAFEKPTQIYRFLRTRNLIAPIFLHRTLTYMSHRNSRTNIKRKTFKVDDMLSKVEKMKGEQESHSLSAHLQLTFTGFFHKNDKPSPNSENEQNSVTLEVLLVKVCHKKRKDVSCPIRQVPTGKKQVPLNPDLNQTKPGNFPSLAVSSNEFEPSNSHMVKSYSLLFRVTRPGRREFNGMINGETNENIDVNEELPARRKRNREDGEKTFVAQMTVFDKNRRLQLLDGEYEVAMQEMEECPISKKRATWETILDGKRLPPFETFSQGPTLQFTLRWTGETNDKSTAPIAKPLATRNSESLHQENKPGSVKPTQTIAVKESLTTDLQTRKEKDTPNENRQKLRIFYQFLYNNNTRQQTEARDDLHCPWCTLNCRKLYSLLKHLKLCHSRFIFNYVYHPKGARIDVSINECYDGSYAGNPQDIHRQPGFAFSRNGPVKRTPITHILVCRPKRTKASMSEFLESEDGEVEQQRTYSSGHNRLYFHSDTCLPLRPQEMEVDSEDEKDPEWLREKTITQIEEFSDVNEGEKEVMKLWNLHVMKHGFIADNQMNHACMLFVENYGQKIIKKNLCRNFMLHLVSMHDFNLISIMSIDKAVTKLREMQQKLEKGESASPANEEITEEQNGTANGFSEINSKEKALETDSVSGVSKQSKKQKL
PRC2-EZH1 (WT EZH1), sequence (Q09028 whole entry partner): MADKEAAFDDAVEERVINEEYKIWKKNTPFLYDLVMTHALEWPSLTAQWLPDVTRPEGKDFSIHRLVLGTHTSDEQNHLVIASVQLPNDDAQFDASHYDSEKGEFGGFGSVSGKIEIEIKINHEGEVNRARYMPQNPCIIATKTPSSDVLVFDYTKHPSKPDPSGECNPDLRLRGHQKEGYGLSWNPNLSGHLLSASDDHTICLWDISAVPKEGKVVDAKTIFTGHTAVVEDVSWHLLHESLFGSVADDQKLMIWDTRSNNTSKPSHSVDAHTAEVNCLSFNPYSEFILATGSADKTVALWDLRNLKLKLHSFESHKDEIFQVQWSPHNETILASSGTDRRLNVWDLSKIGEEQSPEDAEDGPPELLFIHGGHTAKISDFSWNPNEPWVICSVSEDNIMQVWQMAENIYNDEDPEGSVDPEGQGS
PRC2-EZH1 (WT EZH1), sequence (Q6ZN18 whole entry partner): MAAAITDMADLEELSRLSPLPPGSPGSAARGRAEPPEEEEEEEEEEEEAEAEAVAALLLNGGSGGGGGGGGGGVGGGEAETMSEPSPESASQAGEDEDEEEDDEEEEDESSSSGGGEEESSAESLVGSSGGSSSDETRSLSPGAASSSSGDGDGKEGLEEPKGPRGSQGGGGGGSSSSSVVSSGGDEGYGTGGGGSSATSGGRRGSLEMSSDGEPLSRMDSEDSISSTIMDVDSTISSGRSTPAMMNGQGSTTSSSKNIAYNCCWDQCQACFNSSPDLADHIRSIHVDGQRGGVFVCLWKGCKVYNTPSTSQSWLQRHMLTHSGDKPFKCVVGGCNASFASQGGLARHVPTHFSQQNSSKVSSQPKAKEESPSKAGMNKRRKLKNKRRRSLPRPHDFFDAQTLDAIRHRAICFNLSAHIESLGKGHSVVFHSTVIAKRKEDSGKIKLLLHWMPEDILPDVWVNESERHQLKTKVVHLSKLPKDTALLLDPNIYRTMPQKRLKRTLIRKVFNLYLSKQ
T1 sequence (Q15910 whole entry): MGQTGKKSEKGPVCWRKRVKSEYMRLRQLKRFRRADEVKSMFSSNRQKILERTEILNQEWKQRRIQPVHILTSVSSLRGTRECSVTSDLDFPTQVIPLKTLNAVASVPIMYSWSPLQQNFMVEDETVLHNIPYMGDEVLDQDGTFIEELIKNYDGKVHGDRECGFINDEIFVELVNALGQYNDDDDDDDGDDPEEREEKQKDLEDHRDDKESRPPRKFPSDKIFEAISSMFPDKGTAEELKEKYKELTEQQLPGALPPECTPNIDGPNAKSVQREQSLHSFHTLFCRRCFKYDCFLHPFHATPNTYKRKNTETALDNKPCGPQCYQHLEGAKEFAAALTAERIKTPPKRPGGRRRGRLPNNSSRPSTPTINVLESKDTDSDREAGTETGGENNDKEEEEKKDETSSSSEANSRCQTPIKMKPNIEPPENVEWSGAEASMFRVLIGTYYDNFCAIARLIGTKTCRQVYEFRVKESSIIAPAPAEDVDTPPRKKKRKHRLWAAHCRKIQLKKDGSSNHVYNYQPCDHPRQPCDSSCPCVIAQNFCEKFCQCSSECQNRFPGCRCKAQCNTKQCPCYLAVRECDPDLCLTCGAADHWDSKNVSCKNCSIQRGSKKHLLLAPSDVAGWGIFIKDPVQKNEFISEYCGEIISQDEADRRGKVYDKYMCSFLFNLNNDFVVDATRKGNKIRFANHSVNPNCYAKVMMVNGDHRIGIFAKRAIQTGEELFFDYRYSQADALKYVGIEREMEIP
T1 sequence (O75530 whole entry partner): as the sequence (O75530 whole entry partner) above
T1 sequence (Q15022 whole entry partner): as the sequence (Q15022 whole entry partner) above
Protocol for PRC2-EZH1 (WT EZH1): EZH1 Methyltransferase Inhibitory Activity Evaluation
(§1) Then, the residual radioactivity was measured using TopCount NXT HTS (PerkinElmer, Inc., model C384V01).
Protocol for PRC2-EZH2 (WT EZH2): EZH2 Methyltransferase Inhibitory Activity Evaluation
as §1

Regarding `CCN1CC2(CC(C3(C)Oc4c(Br)cc(C(=O)NCc5c(C)cc(C)[nH]c5=O)c(C)c4O3)C2)C1` (stereo not drawn) [Example 5, 7-Bromo-N-[(4,6-dimethyl-2-oxo-1,2-dihydropyridin-3-yl)methyl]-2-(2-ethyl-2-azaspiro[3.3]heptan-6-yl)-2,4-dimethyl-1,3-benzodioxole-5-carboxamide], the 50% inhibitory concentration (IC50) worked out at 15 nM against PRC2-EZH2 (WT EZH2), 51 nM in test [1] and 250 nM at PRC2-EZH1 (WT EZH1).

Regarding `Cc1cc(C)c(CNC(=O)c2cc(Br)c3c(c2C)OC(C)(C2CCN(C)C2)O3)c(=O)[nH]1` (stereo not drawn) [Example 6, 7-Bromo-N-[(4,6-dimethyl-2-oxo-1,2-dihydropyridin-3-yl)methyl]-2,4-dimethyl-2-(1-methylpyrrolidin-3-yl)-1,3-benzodioxole-5-carboxamide], the IC50 against PRC2-EZH2 (WT EZH2) turned out to be 39 nM; in test [1], 45 nM; against PRC2-EZH1 (WT EZH1) it was 510 nM.

`CCN1CCC([C@@]2(C)Oc3c(Br)cc(C(=O)NCc4c(C)cc(C)[nH]c4=O)c(C)c3O2)CC1` [Example 7, (2R)-7-Bromo-N-[(4,6-dimethyl-2-oxo-1,2-dihydropyridin-3-yl)methyl]-2-(1-ethyl-4-piperidyl)-2,4-dimethyl-1,3-benzodioxole-5-carboxamide]: the 50% inhibitory concentration (IC50) came to 3.6 nM on PRC2-EZH2 (WT EZH2), 8.4 nM in test [1] and 38 nM against PRC2-EZH1 (WT EZH1).

As to `Cc1cc(C)c(CNC(=O)c2cc(Br)c3c(c2C)O[C@@](C)(C2CCN(C)CC2)O3)c(=O)[nH]1` [Example 8, (2R)-7-Bromo-N-[(4,6-dimethyl-2-oxo-1,2-dihydropyridin-3-yl)methyl]-2,4-dimethyl-2-(1-methyl-4-piperidyl)-1,3-benzodioxole-5-carboxamide], the results for the IC50 (on PRC2-EZH2 (WT EZH2); in test [1]; against PRC2-EZH1 (WT EZH1)) were 16 nM, 6 nM and 97 nM, respectively.

Turning to `COCCN1CCC([C@@]2(C)Oc3c(Br)cc(C(=O)NCc4c(C)cc(C)[nH]c4=O)c(C)c3O2)CC1` [Example 10, (2R)-7-Bromo-N-[(4,6-dimethyl-2-oxo-1H-pyridin-3-yl)methyl]-2-[l-(2-methoxyethyl)-4-piperidyl]-2,4-dimethyl-1,3-benzodioxole-5-carboxamide], the IC50 at PRC2-EZH2 (WT EZH2) was found to be 11 nM; in test [1] it was 18 nM; at PRC2-EZH1 (WT EZH1) it was 130 nM.

As to `CCCc1cc(C)[nH]c(=O)c1CNC(=O)c1cc(Br)c2c(c1C)O[C@@](C)(C1CCN(CC)CC1)O2` [Example 12, (2R)-7-Bromo-2-(1-ethyl-4-piperidyl)-2,4-dimethyl-N-[(6-methyl-2-oxo-4-propyl-1,2-dihydropyridin-3-yl)methyl]-1,3-benzodioxole-5-carboxamide], the IC50 is 28 nM against PRC2-EZH2 (WT EZH2), 140 nM in test [1] and 200 nM against PRC2-EZH1 (WT EZH1).

For the compound `Cc1cc(C)c(CNC(=O)c2cc(Br)c3c(c2C)OC(C)(CC2CCN(C)CC2)O3)c(=O)[nH]1` (stereo not drawn) [Example 25, 7-Bromo-N-[(4,6-dimethyl-2-oxo-1,2-dihydropyridin-3-yl)methyl]-2,4-dimethyl-2-[(1-methyl-4-piperidyl)methyl]-1,3-benzodioxole-5-carboxamide], the IC50 worked out at 12 nM against PRC2-EZH2 (WT EZH2), 45 nM in test [1] and 110 nM against PRC2-EZH1 (WT EZH1).

Take `CCN1CCC(CC2(C)Oc3c(Br)cc(C(=O)NCc4c(C)cc(C)[nH]c4=O)c(C)c3O2)CC1` (stereo not drawn) [Example 26, 7-Bromo-N-[(4,6-dimethyl-2-oxo-1,2-dihydropyridin-3-yl)methyl]-2-[(1-ethyl-4-piperidyl)methyl]-2,4-dimethyl-1,3-benzodioxole-5-carboxamide]: the IC50 amounted to 23 nM against PRC2-EZH2 (WT EZH2), 37 nM in test [1] and 190 nM on PRC2-EZH1 (WT EZH1).

For the compound `Cc1cc(C)c(CNC(=O)c2cc(Br)c3c(c2C)O[C@@](C)(CO[C@H]2CCN(C)C2)O3)c(=O)[nH]1` [Example 29, (2R)-7-Bromo-N-[(4,6-dimethyl-2-oxo-1,2-dihydropyridin-3-yl)methyl]-2,4-dimethyl-2-[[(3S)-1-methylpyrrolidin-3-yl]oxymethyl]-1,3-benzodioxole-5-carboxamide], the IC50 at PRC2-EZH2 (WT EZH2) was determined as 9.4 nM; in test [1], 16 nM; at PRC2-EZH1 (WT EZH1), 68 nM.

For the compound `Cc1cc(C)c(CNC(=O)c2cc(Cl)c3c(c2C)OC(C)(C2CC4(CC(N(C)C)C4)C2)O3)c(=O)[nH]1` (stereo not drawn) [Example 30, 7-Chloro-2-[2-(dimethylamino)spiro[3.3]heptan-6-yl]-N-[(4,6-dimethyl-2-oxo-1,2-dihydropyridin-3-yl)methyl]-2,4-dimethyl-1,3-benzodioxole-5-carboxamide], the IC50 against PRC2-EZH2 (WT EZH2) came out at 21 nM; in test [1], 16 nM; against PRC2-EZH1 (WT EZH1), 180 nM.

For the compound `CCN1CCC([C@@]2(C)Oc3c(Cl)cc(C(=O)NCc4c(C)cc(C)[nH]c4=O)c(C)c3O2)CC1` [Example 31, (2R)-7-Chloro-N-[(4,6-dimethyl-2-oxo-1,2-dihydropyridin-3-yl)methyl]-2-(1-ethyl-4-piperidyl)-2,4-dimethyl-1,3-benzodioxole-5-carboxamide], the IC50 against PRC2-EZH2 (WT EZH2) came out at 18 nM; in test [1] it was 9 nM; on PRC2-EZH1 (WT EZH1), 110 nM.

`Cc1cc(C)c(CNC(=O)c2cc(Cl)c3c(c2C)OC(C)([C@@H]2CC[C@@H](N(C)C)CO2)O3)c(=O)[nH]1` (stereo partly drawn) [Example 38, 7-Chloro-2-[(2S,5R)-5-(dimethylamino)tetrahydropyran-2-yl]-N-[(4,6-dimethyl-2-oxo-1,2-dihydropyridin-3-yl)methyl]-2,4-dimethyl-1,3-benzodioxole-5-carboxamide]: the values for the IC50 (against PRC2-EZH2 (WT EZH2); in test [1]; at PRC2-EZH1 (WT EZH1)) were 12 nM, 2.8 nM and 57 nM, respectively.

In the case of `COc1cc(C)[nH]c(=O)c1CNC(=O)c1cc(Cl)c2c(c1C)OC(C)([C@@H]1CC[C@@H](N(C)C)CO1)O2` (stereo partly drawn) [Example 39, 7-Chloro-2-[(2S,5R)-5-(dimethylamino)tetrahydropyran-2-yl]-N-[(4-methoxy-6-methyl-2-oxo-1,2-dihydropyridin-3-yl)methyl]-2,4-dimethyl-1,3-benzodioxole-5-carboxamide], the IC50 against PRC2-EZH2 (WT EZH2) turned out to be 14 nM; in test [1], 2.2 nM; against PRC2-EZH1 (WT EZH1), 40 nM.

With `Cc1cc(C)c(CNC(=O)c2cc(Cl)c3c(c2C)OC(C)(CC2CCN(C)CC2)O3)c(=O)[nH]1` (stereo not drawn) [Example 40, 7-Chloro-N-[(4,6-dimethyl-2-oxo-1,2-dihydropyridin-3-yl)methyl]-2,4-dimethyl-2-[(1-methyl-4-piperidyl)methyl]-1,3-benzodioxole-5-carboxamide], the figures for the IC50 (against PRC2-EZH2 (WT EZH2); in test [1]; against PRC2-EZH1 (WT EZH1)) were 11 nM, 32 nM and 210 nM, respectively.

On to `Cc1cc(C)c(CNC(=O)c2cc(Br)c3c(c2C)OC(C)(CN2CCNCC2)O3)c(=O)[nH]1` (stereo not drawn) [Example 42, 7-Bromo-N-[(4,6-dimethyl-2-oxo-1,2-dihydropyridin-3-yl)methyl]-2,4-dimethyl-2-(piperazin-1-ylmethyl)-1,3-benzodioxole-5-carboxamide], for which the figures for the IC50 (against PRC2-EZH2 (WT EZH2); in test [1]; at PRC2-EZH1 (WT EZH1)) were 27 nM, 67 nM and 190 nM, respectively.

For the compound `Cc1cc(C)c(CNC(=O)c2cc(Br)c3c(c2C)OC(C)(CN2CCN(C)CC2)O3)c(=O)[nH]1` (stereo not drawn) [Example 43, 7-Bromo-N-[(4,6-dimethyl-2-oxo-1,2-dihydropyridin-3-yl)methyl]-2,4-dimethyl-2-[(4-methylpiperazin-1-yl)methyl]-1,3-benzodioxole-5-carboxamide], the IC50 against PRC2-EZH2 (WT EZH2) worked out at 41 nM; in test [1] it was 44 nM; at PRC2-EZH1 (WT EZH1), 380 nM.

The IC50 is the concentration that gives 50% inhibition.

(Values after US10954219B2, “1,3-benzodioxole derivative” (DAIICHI SANKYO COMPANY, LIMITED, priority 2014, dated 2021).)
